Key:
[1] = test system: elongation of cress lower hypocotyl; assay: Inhibition of elongation of cress lower hypocotyl, with rescue by brassinolide or gibberellin; assay type: in vivo; conditions: FIG. 2
Protocol: Surfaces of cress seeds purchased were sterilized with 1% NaOCl solution for 20 minutes and washed 5 times with distilled water. The resulting cress seeds were sown on 1% agar-solidified medium (containing 0.5×Murashige and Skoog salts and 1.5% sucrose in Agripot (Kirin Brew Co., Tokyo)). The plants was grown in a growth chamber kept at 25[…] under a cycle of 16 hour light (240 μEm-2s-1) and 8 hour dark conditions. […] The inhibitory effect of the compound of the present invention against elongation of cress lower hypocotyl was suppressed by addition of blassinolide, whilst not suppressed by addition of gibberellin (FIG. 1).

[2] = test system: brassinosteroid biosynthesis; conditions: reported in Japanese Patent Application No. 10-227939; cited from earlier work

Structure (SMILES)	inhibitory action against brassinosteroid biosynthesis, comparison with Brz91 [1]	inhibitory action against the brassinosteroid biosynthesis [2]
C=CCC(O)(c1ccccc1)C(Cc1ccc(Cl)cc1)n1cncn1 (centres unmarked) [Brz2001, 6-(4-Chlorophenyl)-4-phenyl-5-(1,2,4-triazoyl)hexen-1-en-4-ol]	inhibitory action	
CC(O)(c1ccccc1)C(Cc1ccc(Cl)cc1)c1nc[nH]n1 (centres unmarked) [Brz91, 4-(4-chlorophenyl)-2-phenyl-3-(1,2,4-triazolyl)butan-2-ol]		had the desired inhibitory action

From patent publication US6649568B2, “Brassinosteroid biosynthesis inhibitor” (Riken, priority 2000, dated 2003)
